Columns and labels:
[1] = tested on: B16 cells; experiment: In vitro cytotoxicity, XTT assay, B16 cells; type: cell-based; settings: 48 h
Protocol: B16 or HeLa cells were plated at a density of 5×10^3 cells per well in D10 media in 96-well plates and grown for 6 h. The cells were then exposed to a series of concentrations of Dox-loaded CMLs, ULs or DLLs for 48 h, and the cytotoxicity of Dox-liposomes was assessed using the Cell Proliferation Kit II (XTT assay) from Roche Applied Science, according to the manufacturer's instructions.

[2] = tested on: cardiac tissue; settings: 20 mg/kg Dox equivalent, single i.v.
Source text: FIGS. 9A-B. In vivo toxicity and tolerability. […] (A) Average mouse weight loss over time. […] Error bars represent the standard deviation of the mean; n=2 for each treatment group (*p<0.05, ***p<0.005).

[3] = Maximum tolerated dose study; settings: for body weight: 8 days
Source text: The mice were weighed and monitored daily for 8 days after injection.

COc1cccc2c1C(=O)c1c(O)c3c(c(O)c1C2=O)C[C@@](O)(C(=O)CO)C[C@@H]3O[C@H]1C[C@H](N)[C@H](O)[C@H](C)O1 [free Dox, doxorubicin]
half-maximal response (EC50) [1]: similar
histopathologic changes in cardiac tissue [2]: severe damage of cardiac tissue
body weight ([3]; 20 mg/kg Dox equivalent): significant loss of body weight
body weight ([3]; 40 mg/kg Dox equivalent): significant loss of body weight
general health / signs of toxicity ([3]; 40 mg/kg free Dox, CML-Dox groups): obvious signs of toxicity
maximum tolerated dose ([3]; single intravenous administration, C57BL/6 mice): < 20 mg/kg

— US20140356414A1, “Targeted Crosslinked Multilamellar Liposomes” (University of Southern California, priority 2013, published 2014)
